molecular target: T1, pY641-STAT6 in PBMC (Homo sapiens, UniProt P42226); test: MSD-pSTAT-PBMC Assay (pSTAT6, IL-4 stimulated); type: cell-based; settings: PBMC, compound 3 hrs, then 1 ng/mL IL-4 for 10 min; Table 115; read-out: STAT6
T1 construct: Cryopreserved Peripheral Blood Mononuclear Cells (PBMC) are from AllCells; host or cells: cryopreserved PBMC
T1 sequence (P42226 1-847): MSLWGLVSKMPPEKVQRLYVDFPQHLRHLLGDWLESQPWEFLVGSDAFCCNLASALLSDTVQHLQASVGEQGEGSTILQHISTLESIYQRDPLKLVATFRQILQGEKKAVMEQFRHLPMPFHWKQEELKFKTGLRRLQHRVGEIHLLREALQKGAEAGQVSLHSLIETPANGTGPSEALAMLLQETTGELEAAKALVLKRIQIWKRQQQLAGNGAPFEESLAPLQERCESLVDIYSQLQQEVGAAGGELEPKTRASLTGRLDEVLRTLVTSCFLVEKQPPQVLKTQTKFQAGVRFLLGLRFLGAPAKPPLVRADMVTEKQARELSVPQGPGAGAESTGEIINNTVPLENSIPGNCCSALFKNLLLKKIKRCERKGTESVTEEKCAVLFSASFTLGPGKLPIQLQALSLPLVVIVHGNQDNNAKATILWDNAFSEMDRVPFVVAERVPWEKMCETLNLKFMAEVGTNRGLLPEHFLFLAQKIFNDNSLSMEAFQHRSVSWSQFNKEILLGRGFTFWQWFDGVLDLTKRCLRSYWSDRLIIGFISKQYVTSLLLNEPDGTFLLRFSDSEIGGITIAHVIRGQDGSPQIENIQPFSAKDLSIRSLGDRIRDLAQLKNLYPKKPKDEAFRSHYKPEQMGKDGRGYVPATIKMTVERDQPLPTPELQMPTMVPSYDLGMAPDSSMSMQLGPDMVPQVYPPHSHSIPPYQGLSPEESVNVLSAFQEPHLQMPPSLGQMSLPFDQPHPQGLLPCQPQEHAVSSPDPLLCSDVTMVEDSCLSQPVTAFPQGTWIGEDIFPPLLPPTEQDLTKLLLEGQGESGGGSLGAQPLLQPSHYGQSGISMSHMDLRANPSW
In short: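 Thawed human PBMC rested overnight in IMDM/10% FBS, then got compound for 3 hrs before a 10 min cytokine pulse: 1 ng/mL IL-4 for pSTAT6, 10 ng/mL IL-6 for pSTAT3. Lysates went to MSD sandwich capture on total STAT6 or STAT3 with phospho-specific detection. IC50 came from background-subtracted, DMSO-normalized signal.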

| SMILES | IC50 [nM] |
| --- | --- |
| CCCOC(=O)[C@H](C)NP(=O)(Cc1ccc2sc(C(=O)N[C@H]3CCCC[C@H]4CC[C@@H](C(=O)N5C[C@@H](C#N)[C@H](c6ccccc6)C5)N4C3=O)cc2c1)Oc1ccccc1 (stereo partly shown) [Compound 444] | 100 to 1000 |

same assay, conditions: STAT6, PBMC, compound 3 hrs, then 1 ng/mL IL-4 for 10 min; Table 115

| SMILES | IC50 [nM] |
| --- | --- |
| CCCOC(=O)[C@H](C)NP(=O)(Oc1ccccc1)C(F)c1ccc2ccc(C(=O)N[C@H]3CCCC[C@H]4CC[C@@H](C(=O)N5CC(c6cccnc6)CC56CC6)N4C3=O)cc2c1 (stereo partly drawn) [Compound 429, propyl ((fluoro(7-(((3S,6S,10aS)-5-oxo-3-(6-(pyridin-3-yl)-4-azaspiro[2.4]heptane-4-carbonyl)decahydropyrrolo[1,2-a]azocin-6-yl)carbamoyl)naphthalen-2-yl)methyl)(phenoxy)phosphoryl)-L-alaninate] | < 100 |
| C[C@H](NP(=O)(Cc1ccc2ccc(C(=O)N[C@H]3CCCC[C@H]4CC[C@@H](C(=O)N5CC(c6ccccc6)CC56CC6)N4C3=O)cc2c1)Oc1ccccc1)C(=O)OCC(C)(C)C (stereo partly drawn) [Compound 436, neopentyl (((7-(((3S,6S,10aS)-5-oxo-3-(6-phenyl-4-azaspiro[2.4]heptane-4-carbonyl)decahydropyrrolo[1,2-a]azocin-6-yl)carbamoyl)naphthalen-2-yl)methyl)(phenoxy)phosphoryl)-L-alaninate] | > 3000 |
| CCCOC(=O)[C@H](C)NP(=O)(Oc1ccccc1)C(F)c1ccc2ccc(C(=O)N[C@H]3CCCC[C@H]4CC[C@@H](C(=O)N5CC(c6ccn(C)c(=O)c6)CC56CC6)N4C3=O)cc2c1 (stereo partly drawn) [Compound 440, propyl ((fluoro(7-(((3S,6S,10aS)-3-(6-(1-methyl-2-oxo-1,2-dihydropyridin-4-yl)-4-azaspiro[2.4]heptane-4-carbonyl)-5-oxodecahydropyrrolo [1,2-a]azocin-6-yl)carbamoyl)naphthalen-2-yl)methyl)(phenoxy)phosphoryl)-L-alaninate] | < 100 |
| CCCOC(=O)[C@H](C)NP(=O)(Oc1ccccc1)C(F)c1ccc2ccc(C(=O)N[C@H]3CCCC[C@H]4CC[C@@H](C(=O)N5C[C@@H](c6ccn(C)c(=O)c6)CC56CC6)N4C3=O)cc2c1 (stereo partly drawn) [Compound 441, propyl ((fluoro(7-(((3S,6S,10aS)-3-((R)-6-(1-methyl-2-oxo-1,2-dihydropyridin-4-yl)-4-azaspiro[2.4]heptane-4-carbonyl)-5-oxodecahydropyrrolo [1,2-a]azocin-6-yl)carbamoyl)naphthalen-2-yl)methyl)(phenoxy)phosphoryl)-L-alaninate] | < 100 |
| CCCOC(=O)[C@H](C)NP(=O)(Oc1ccccc1)C(F)c1ccc2ccc(C(=O)N[C@H]3CCCC[C@H]4CC[C@@H](C(=O)N5C[C@H](c6ccccc6)[C@@H](C#N)C56CC6)N4C3=O)cc2c1 (stereo partly drawn) [Compound 442, propyl (((7-(((3S,6S,10aS)-3-((6S,7R)-7-cyano-6-phenyl-4-azaspiro[2.4]heptane-4-carbonyl)-5-oxodecahydropyrrolo [1,2-a]azocin-6-yl)carbamoyl)naphthalen-2-yl)fluoromethyl) (phenoxy)phosphoryl)-L-alaninate] | < 100 |
| CCCOC(=O)[C@H](C)NP(=O)(Oc1ccccc1)C(F)c1ccc2ccc(C(=O)N[C@H]3CCCC[C@H]4CC[C@@H](C(=O)N5C[C@H](c6ccn(C)c(=O)c6)CC56CC6)N4C3=O)cc2c1 (stereo partly drawn) [Compound 443, propyl ((fluoro(7-(((3S,6S,10aS)-3-((S)-6-(1-methyl-2-oxo-1,2-dihydropyridin-4-yl)-4-azaspiro[2.4]heptane-4-carbonyl)-5-oxodecahydropyrrolo [1,2-a]azocin-6-yl)carbamoyl)naphthalen-2-yl)methyl)(phenoxy)phosphoryl)-L-alaninate] | 100 to 1000 |
| CCCOC(=O)[C@H](C)NP(=O)(Oc1ccccc1)C(F)c1ccc2sc(C(=O)N[C@H]3CCCC[C@H]4CC[C@@H](C(=O)N5CC(c6cccnc6)CC56CC6)N4C3=O)cc2c1 (stereo partly drawn) [Compound 448, propyl ((fluoro(2-(((3S,6S,10aS)-5-oxo-3-(6-(pyridin-3-yl)-4-azaspiro[2.4]heptane-4-carbonyl)decahydropyrrolo[1,2-a]azocin-6-yl)carbamoyl)benzo [b]thiophen-5-yl)methyl)(phenoxy)phosphoryl)-L-alaninate] | < 100 |
| CCCOC(=O)[C@H](C)NP(=O)(Oc1ccccc1)C(F)c1ccc2sc(C(=O)N[C@H]3CCCC[C@H]4CC[C@@H](C(=O)N5CC(c6ccn(C)c(=O)c6)CC56CC6)N4C3=O)cc2c1 (stereo partly drawn) [Compound 449, propyl ((fluoro(2-(((3S,6S,10aS)-3-(6-(1-methyl-2-oxo-1,2-dihydropyridin-4-yl)-4-azaspiro[2.4]heptane-4-carbonyl)-5-oxodecahydropyrrolo [1,2-a]azocin-6-yl)carbamoyl)benzo [b]thiophen-5-yl)methyl)(phenoxy)phosphoryl)-L-alaninate] | 100 to 1000 |
| CCCOC(=O)[C@H](C)NP(=O)(Oc1ccccc1)C(F)c1ccc2ccc(C(=O)N[C@H]3CCCC[C@H]4CC[C@@H](C(=O)N5CCC(c6ccn(C)c(=O)c6)C5)N4C3=O)cc2c1 (stereo partly drawn) [Compound 450, propyl ((fluoro(7-(((3S,6S,10aS)-3-(3-(1-methyl-2-oxo-1,2-dihydropyridin-4-yl)pyrrolidine-1-carbonyl)-5-oxodecahydropyrrolo [1,2-a]azocin-6-yl)carbamoyl)naphthalen-2-yl)methyl)(phenoxy)phosphoryl)-L-alaninate] | 100 to 1000 |
| CCCOC(=O)[C@H](C)NP(=O)(Oc1ccccc1)C(F)c1ccc2ccc(C(=O)N[C@H]3CCCC[C@H]4CC[C@@H](C(=O)N5CCC(F)(c6ccn(C)c(=O)c6)C5)N4C3=O)cc2c1 (stereo partly drawn) [Compound 451, propyl ((fluoro(7-(((3S,6S,10aS)-3-(3-fluoro-3-(1-methyl-2-oxo-1,2-dihydropyridin-4-yl)pyrrolidine-1-carbonyl)-5-oxodecahydropyrrolo [1,2-a]azocin-6-yl)carbamoyl)naphthalen-2-yl)methyl)(phenoxy)phosphoryl)-L-alaninate] | 100 to 1000 |
| CCCOC(=O)[C@H](C)NP(=O)(Oc1ccccc1)C(F)c1ccc2sc(C(=O)N[C@H]3CCCC[C@H]4CC[C@@H](C(=O)N5C(=O)N(c6cccnc6)C(=O)C56CC6)N4C3=O)cc2c1 (stereo partly drawn) [Compound 452, propyl (((2-(((3S,6S,10aS)-3-(5,7-dioxo-6-(pyridin-3-yl)-4,6-diazaspiro[2.4]heptane-4-carbonyl)-5-oxodecahydropyrrolo [1,2-a]azocin-6-yl)carbamoyl)benzo [b]thiophen-5-yl)fluoromethyl) (phenoxy)phosphoryl)-L-alaninate] | < 100 |
| CCCOC(=O)[C@H](C)NP(=O)(Oc1ccccc1)C(F)c1ccc2ccc(C(=O)N[C@H]3CCC[C@H]4CC[C@@H](C(=O)N5CC(c6cccnc6)CC56CC6)N4C3=O)cc2c1 (stereo partly drawn) [Compound 453, propyl ((fluoro(7-(((3S,6S,9aS)-5-oxo-3-(6-(pyridin-3-yl)-4-azaspiro[2.4]heptane-4-carbonyl)octahydro-1H-pyrrolo[1,2-a]azepin-6-yl)carbamoyl)naphthalen-2-yl)methyl)(phenoxy)phosphoryl)-L-alaninate] | 100 to 1000 |
| CCCOC(=O)[C@H](C)NP(=O)(Oc1ccccc1)C(F)c1ccc2ccc(C(=O)N[C@H]3CCCC[C@H]4CC[C@@H](C(=O)N5CCC(c6ccn(C7CC7)c(=O)c6)C5)N4C3=O)cc2c1 (stereo partly drawn) [Compound 455, propyl (((7-(((3S,6S,10aS)-3-(3-(1-cyclopropyl-2-oxo-1,2-dihydropyridin-4-yl)pyrrolidine-1-carbonyl)-5-oxodecahydropyrrolo [1,2-a]azocin-6-yl)carbamoyl)naphthalen-2-yl)fluoromethyl) (phenoxy)phosphoryl)-L-alaninate] | > 3000 |
| CCCOC(=O)[C@H](C)NP(=O)(Oc1ccccc1)C(F)c1ccc2sc(C(=O)N[C@H]3CCC[C@H]4CC[C@@H](C(=O)N5CC(c6cccnc6)CC56CC6)N4C3=O)cc2c1 (stereo partly drawn) [Compound 456, propyl ((fluoro(2-(((3S,6S,9aS)-5-oxo-3-(6-(pyridin-3-yl)-4-azaspiro[2.4]heptane-4-carbonyl)octahydro-1H-pyrrolo[1,2-a]azepin-6-yl)carbamoyl)benzo [b]thiophen-5-yl)methyl)(phenoxy)phosphoryl)-L-alaninate] | < 100 |
| CCCOC(=O)[C@H](C)NP(=O)(Oc1ccccc1)C(F)c1ccc2sc(C(=O)N[C@H]3CCCC[C@H]4CC[C@@H](C(=O)N5CCC(c6cnn(C)c(=O)c6)C5)N4C3=O)cc2c1 (stereo partly drawn) [Compound 465, propyl ((fluoro(2-(((3S,6S,10aS)-3-(3-(1-methyl-6-oxo-1,6-dihydropyridazin-4-yl)pyrrolidine-1-carbonyl)-5-oxodecahydropyrrolo [1,2-a]azocin-6-yl)carbamoyl)benzo [b]thiophen-5-yl)methyl)(phenoxy)phosphoryl)-L-alaninate] | > 3000 |
